Results published in US20120258937A1, “Targeting Estrogen Receptors in the Treatment of Lymphangioleiomyomatosis” (Fox Chase Cancer Center, priority 2011, published 2012).

Key:
[1] = system: ELT3 cells; assay: ELT3 xenograft tumor growth, lung metastasis and survival in SCID mice; assay type: in vivo; settings: for effect on estradiol-promoted lung metastases: ELT3 xenograft model of LAM; for mean tumor area: post-inoculation week eight
Method: Animal studies. All animal work was performed in accordance with protocols approved by the Institutional Animal Care and Use Committee at the Brigham and Women's Hospital. Female ovariectomized and male CB17-SCID mice, six to eight weeks of age, were purchased from Taconic (Hudson, N.Y.). One week prior to ELT3 cell injection, 17-beta estradiol or placebo pellets (2.5 mg, 90-day release, Innovative Research America, Sarasota, Fla.) were implanted. For xenograft tumor establishment, 2×10^6 ELT3 cells were bilaterally injected into the rear flanks of the mice. Lung metastases were scored from five-micron H & E stained sections of each lobe by observers blinded to the experimental conditions. […]
Statistical analyses. Statistical analyses were performed using Student's t-test when comparing two groups. Results are presented as means+SD (Standard Deviation) of experiments performed in triplicate. Differences were considered significant at p<0.05.

[2] = system: ELT3 xenograft tumors; assay: Analysis of ELT3 xenograft tumors (H&E, immunohistochemistry, TUNEL, immunoblot, real-time RT-PCR); assay type: in vivo, mice; settings: for MMP2 protein level vs placebo-treated: immunoblotting
Method: Animal studies. All animal work was performed in accordance with protocols approved by the Institutional Animal Care and Use Committee at the Brigham and Women's Hospital. Female ovariectomized and male CB17-SCID mice, six to eight weeks of age, were purchased from Taconic (Hudson, N.Y.). One week prior to ELT3 cell injection, 17-beta estradiol or placebo pellets (2.5 mg, 90-day release, Innovative Research America, Sarasota, Fla.) were implanted. For xenograft tumor establishment, 2×10^6 ELT3 cells were bilaterally injected into the rear flanks of the mice. Lung metastases were scored from five-micron H & E stained sections of each lobe by observers blinded to the experimental conditions. Fulvestrant (1 mg/day, intramuscular injection) or Doxycycline (0.7 mg/day, 60-day release, Innovative Research America) treatments were initiated one day post-cell inoculation.
(§1) Immunoblotting and antibodies. Cells were rinsed once in ice-cold PBS and lysed in m-PER buffer (50 mM HEPES, pH 7.5, 50 mM NaCl, 5 mM EDTA, 50 mM NaF, 10 mM Na4P2O7, and 1% Triton, Pierce). Lysates were resolved by SDS-PAGE electrophoresis and transferred onto Immobilon P membranes (Millipore, Bedford, Mass.). The following antibodies were used for Western blot analysis: anti-MMP2 (Chemicon), anti-phospho-p42/44 MAPK (T202/Y204), anti-p42/44MAPK, anti-Collagen Type IV (Abnova), anti-Ki67 (BioGenex, San Ramon, Calif.), anti-beta-actin (Sigma), and anti-ERα (Santa Cruz, Calif.). Western blots were developed using horseradish peroxidase-conjugated secondary antibodies and ECL chemiluminescence (Amersham Biosciences, Piscataway, N.J.).
(§2) Immunohistochemistry. Sections were deparaffinized, incubated overnight with primary antibodies at 4° C. in a humidified chamber and then rinsed and incubated with biotinylated secondary antibodies for 30 minutes at room temperature. Slides were developed using the Broad Spectrum AEC Histostain®-Plus or Histostain®-Plus kit (Invitrogen), and they were counterstained with Gill's Hematoxylin. TUNEL assay reagent was from Roche. Gelatin zymography. Conditioned media from cultured cells were collected, filtered through […] Nalgene filter, and subjected for gel electrophoresis on 10% SDS-PAGE containing 0.1% gelatin (Invitrogen). MMP2 activity was detected according to the manufacture's protocol. Real-time RT-PCR. Total RNA from cultured cells and xenograft tumors was isolated using RNeasy® Mini Kit (Qiagen, Valencia, Calif.). Gene expression was quantified using One-Step qRT-PCR Kits (Invitrogen) in the Applied Biosystems Real-Time PCR System and normalized to beta-actin control amplification.

[3] = system: MMP2; assay: MMP2 activity in ELT3 conditioned media by gelatin zymography; assay type: cell-based, rat; settings: ELT3 cells
Method: (§3) Cell culture and reagents. ELT-3 cells (Eker rat uterine leiomyoma-derived smooth muscle cells) were cultured in IIA complete medium supplemented with 15% fetal bovine serum (FBS). Prior to the in vitro experiments, cells were maintained in media supplemented with 10% charcoal-stripped FBS for three days, and then serum-starved for 24 hours in serum-free and phenol red-free medium. 17 beta-estradiol (E2, 10 nM, Sigma, St. Louis, Mo.), PD98059 (50 μM, Cell Signaling Technology, Danvers, Mass.), or ICI 182780 (1 μM, Biomol) were added to the cells as indicated.
as §2

[4] = system: MMP2; assay: MMP2 accumulation in cultured ELT3 cells by immunoblotting; assay type: cell-based, rat
Method: as §3, §1

[5] = ELT3 xenograft, given on this schedule (one day prior to cell inoculation)
[6] = estradiol plus drug, immunoblot
[7] = real-time RT-PCR, female mice, size-matched tumors

CO[C@H]1C[C@@H]2CC[C@@H](C)[C@@](O)(O2)C(=O)C(=O)N2CCCC[C@H]2C(=O)O[C@H]([C@H](C)C[C@@H]2CC[C@@H](OCCO)[C@H](OC)C2)CC(=O)[C@H](C)/C=C(\C)[C@@H](O)[C@@H](OC)C(=O)[C@H](C)C[C@H](C)/C=C/C=C/C=C/1C [RAD001]
lung metastasis [1, 5]: completely blocked
subcutaneous tumor development [1, 5]: completely blocked

C[C@]12CC[C@@H]3c4ccc(O)cc4C[C@@H](CCCCCCCCC[S+]([O-])CCCC(F)(F)C(F)(F)F)[C@H]3[C@@H]1CC[C@@H]2O (stereo partly drawn) [Fulvestrant]
cell death (TUNEL staining) in xenograft tumors ([2]; drug in estradiol-treated mice): did not affect
cell proliferation (Ki-67 immunoreactivity) in xenograft tumors ([2]; drug in estradiol-treated mice): did not affect
ECM organization in xenograft tumors ([2]; drug plus estradiol-treated animals): well-maintained ECM network
ECM organization in xenograft tumors ([2]; drug plus placebo-treated animals): dense bundles of collagen fibers
ERα in tumors [2, 6]: lower levels
phospho-p42/44 MAPK in tumors [2, 6]: lower levels
effect on estradiol-promoted lung metastases ([1]; drug plus estradiol): completely blocked
effect on survival of estradiol-treated mice bearing xenograft tumors ([1]; drug plus estradiol, Kaplan-Meier): significantly increased
mean tumor area ([1]; drug plus estradiol): 259±83 mm^2
effect on estradiol-stimulated MMP2 activity ([3]; 4 hours pretreatment, then estradiol stimulation): almost completely blocked

C[C@H]1c2cccc(O)c2C(=O)C2=C(O)[C@]3(O)C(=O)C(C(N)=O)=C(O)[C@@H](N(C)C)[C@@H]3[C@@H](O)[C@@H]21 [Doxycycline]
average number of lung metastases ([1]; drug plus estradiol): 9 metastases/mouse
range of number of lung metastases ([1]; drug plus estradiol): 6-18 metastases/mouse
effect on estradiol-promoted lung metastases ([1]; drug plus estradiol): does not inhibit
mice with lung metastases ([1]; drug plus estradiol, four of five mice): 80%
mean tumor area ([1]; drug plus estradiol): 333±142 mm^2
mean tumor area ([1]; drug plus placebo): 193±80 mm^2

C[C@]12CC[C@@H]3c4ccc(O)cc4CC[C@H]3[C@@H]1CC[C@@H]2O [estradiol, 17 beta-estradiol]
type IV collagen in xenograft tumors ([2]; estradiol alone vs placebo, female and male mice): marked reduction
ECM organization in xenograft tumors ([2]; estradiol alone vs placebo, female and male mice, H&E): disrupted ECM network
MMP2 protein level vs placebo-treated ([2]; female mice): 1.8 fold
MMP2 protein level vs placebo-treated ([2]; male mice): 2.5 fold
MMP2 transcript level vs placebo-treated [2, 7]: 5 fold
MMP9 transcript level vs placebo-treated [2, 7]: 28 fold
progesterone receptor (PgR) level vs placebo-treated ([2]; real-time RT-PCR, xenograft tumors): 4 fold
average number of lung metastases ([1]; E2 alone): 10 metastases/mouse
range of number of lung metastases ([1]; E2 alone): 4-37 metastases/mouse
mice with pulmonary metastases ([1]; E2 alone, five of nine mice): 56%
increase in pulmonary metastasis of ELT3 cells ([1]; E2 alone, mice bearing xenograft tumors): three- to five-fold
overall survival vs placebo-treated mice ([1]; estradiol alone, mice bearing xenograft tumors): reduced overall survival
mean tumor area ([1]; estrogen alone): 251±65 mm^2
increase of MMP2 activity ([3]; estradiol stimulation for 24 hours): eight-fold
duration of estradiol-stimulated MMP2 activity ([3]; up to 120 minutes stimulation): sustained throughout the 120 minutes stimulation
increase of active MMP2 level ([3]; within five minutes of estradiol stimulation): three-fold
increase of MMP2 accumulation ([4]; within two to four hours of estradiol treatment): five to seven-fold

COc1cccc(-c2cc(=O)c3ccccc3o2)c1N [PD98059]
effect on estradiol's enhancement of MMP2 accumulation ([4]; 30 minutes preincubation, after two hours of estradiol treatment): strongly blocked
